Holding throughout (assay): relative viability (nuclei count vs DMSO), 5 days (fraction); higher = more cells survive
Compound in the experiment “XMD14-99 + Crizotinib”: CN1CCN(CC1)C2=CC(=C(C=C2)NC3=NC(=C(S3)C(=O)C4=C(C=CC=C4Cl)Cl)N)OC [XMD14-99] + C[C@@H](Oc1cc(-c2cnn(C3CCNCC3)c2)cnc1N)c1c(Cl)ccc(F)c1Cl [Crizotinib] (partner 1 µM)
The essentials: (§1)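 Nuclei were stained with Hoechst during a one-step fixation (final 0.05% Triton X-100, 1% formaldehyde, 1 ug/ml Hoechst) carried out 5 days after dosing, then counted on 4× images. The cells, lung cancer lines in 1536-well plates, had been dosed by pin tool the day after seeding with one drug alone or a fixed anchor-drug dose plus five library-drug doses (not always all listed) in √10 steps. Relative viability is the nuclei count in treated wells divided by that in vehicle wells, and each value is the median of duplicate plates.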

Compound in the experiment “XMD14-99 + Pemetrexed”: CN1CCN(CC1)C2=CC(=C(C=C2)NC3=NC(=C(S3)C(=O)C4=C(C=CC=C4Cl)Cl)N)OC [XMD14-99] + Nc1nc2[nH]cc(CCc3ccc(C(=O)N[C@@H](CCC(=O)O)C(=O)O)cc3)c2c(=O)[nH]1 [Pemetrexed] (partner 0.2 µM)
Summed up:
as §1

Compound in the experiment “AZD1208 + Alpelisib”: N[C@@H]1CCCN(c2c(/C=C3\SC(=O)NC3=O)cccc2-c2ccccc2)C1 [AZD1208] + Cc1nc(NC(=O)N2CCC[C@H]2C(N)=O)sc1-c1ccnc(C(C)(C)C(F)(F)F)c1 [Alpelisib] (partner 2 µM)
The essentials:
as §1

Compound in the experiment “AZD1208 + Vorinostat”: N[C@@H]1CCCN(c2c(/C=C3\SC(=O)NC3=O)cccc2-c2ccccc2)C1 [AZD1208] + O=C(CCCCCCC(=O)Nc1ccccc1)NO [Vorinostat] (partner 1 µM)
Summed up: as §1

With UMC-11, the relative viability in the experiment with XMD14-99 + Crizotinib (first compound 0.08 µM) was 0.619; in the experiment with XMD14-99 + Crizotinib (first compound 0.8 µM) it was 0.582; with XMD14-99 + Crizotinib (first compound 2.53 µM) it was 0.721; in the experiment with XMD14-99 + Crizotinib (first compound 8 µM) it was 0.577; in the experiment with XMD14-99 + Pemetrexed (first compound 0.08 µM) it was 0.752; with XMD14-99 + Pemetrexed (first compound 0.8 µM) it was 0.769. In addition, the relative viability with XMD14-99 + Pemetrexed (first compound 2.53 µM) stood at 0.688; in the experiment with XMD14-99 + Pemetrexed (first compound 8 µM) it was 0.69; with AZD1208 + Alpelisib (first compound 0.08 µM), 0.757; with AZD1208 + Alpelisib (first compound 0.253 µM), 0.908; in the experiment with AZD1208 + Alpelisib (first compound 0.8 µM) it was 0.746; in the experiment with AZD1208 + Alpelisib (first compound 2.53 µM) it was 0.77. In addition, the relative viability with AZD1208 + Alpelisib (first compound 8 µM) was 0.488; with AZD1208 + Vorinostat (first compound 0.08 µM), 0.362; with AZD1208 + Vorinostat (first compound 0.253 µM), 0.354; in the experiment with AZD1208 + Vorinostat (first compound 0.8 µM), 0.3; with AZD1208 + Vorinostat (first compound 2.53 µM), 0.294; with AZD1208 + Vorinostat (first compound 8 µM) it was 0.211.

The values are drawn from the supplement of paper PMC10307832.
